Values quoted from earlier work as cited in patent US20260373135A1, “Methods of Treatment with Tradipitant” (Vanda Pharmaceuticals Inc., priority 2022, published 2026).

Assays:
[1] = biological target: T1, CYP3A4 (Homo sapiens, UniProt P08684); settings: breast cancer patients; n=16 *22, n=116 wt; cited from earlier work
[2] = biological target: T1, CYP3A4; settings: renal transplant patients; cited from earlier work
[3] = biological target: T1, CYP3A4; settings: human liver microsomes in vitro; cited from earlier work

T1 sequence (P08684 whole entry): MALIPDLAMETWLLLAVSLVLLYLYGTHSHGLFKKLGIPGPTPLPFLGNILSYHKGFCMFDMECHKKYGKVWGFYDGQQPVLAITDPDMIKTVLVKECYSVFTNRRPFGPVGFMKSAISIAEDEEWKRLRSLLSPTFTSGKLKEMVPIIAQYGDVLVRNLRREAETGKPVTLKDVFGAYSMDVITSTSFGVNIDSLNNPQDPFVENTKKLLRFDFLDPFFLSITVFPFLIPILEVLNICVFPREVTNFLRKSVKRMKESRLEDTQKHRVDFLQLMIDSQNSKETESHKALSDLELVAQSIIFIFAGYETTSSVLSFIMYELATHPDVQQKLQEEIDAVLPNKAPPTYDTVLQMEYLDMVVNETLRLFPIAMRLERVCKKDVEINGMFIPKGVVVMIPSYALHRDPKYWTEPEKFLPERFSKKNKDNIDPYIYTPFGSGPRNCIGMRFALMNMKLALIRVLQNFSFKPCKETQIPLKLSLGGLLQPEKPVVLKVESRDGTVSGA

| SMILES | clearance in CYP3A4*22 carriers [2] | also measured |
| --- | --- | --- |
| CC/C(=C(\c1ccc(O)cc1)c1ccc(OCCNC)cc1)c1ccccc1 [Endoxifen] |  | blood concentrations in CYP3A4*22 carriers vs *1/*1 [1]: increased |
| CO[C@H]1C[C@@H]2CC[C@@H](C)[C@@](O)(O2)C(=O)C(=O)N2CCCC[C@H]2C(=O)O[C@H]([C@H](C)C[C@@H]2CC[C@@H](OCCO)[C@H](OC)C2)CC(=O)[C@H](C)/C=C(\C)[C@@H](O)[C@@H](OC)C(=O)[C@H](C)C[C@H](C)/C=C/C=C/C=C/1C [everolimus] | lower clearance |  |
| CO[C@H]1C[C@@H]2CC[C@@H](C)[C@@](O)(O2)C(=O)C(=O)N2CCCC[C@H]2C(=O)O[C@H]([C@H](C)C[C@@H]2CC[C@@H](O)[C@H](OC)C2)CC(=O)[C@H](C)/C=C(\C)[C@@H](O)[C@@H](OC)C(=O)[C@H](C)C[C@H](C)/C=C/C=C/C=C/1C [sirolimus] |  | metabolic rate with CYP3A4*22 [3]: lower |
| C=CC[C@@H]1/C=C(\C)C[C@H](C)C[C@H](OC)[C@H]2O[C@@](O)(C(=O)C(=O)N3CCCC[C@H]3C(=O)O[C@H](/C(C)=C/[C@@H]3CC[C@@H](O)[C@H](OC)C3)[C@H](C)[C@@H](O)CC1=O)[C@H](C)C[C@@H]2OC [tacrolimus] | reduced |  |
